ChEMBL document CHEMBL4371084, “Design, synthesis and biological evaluation of novel HIV-1 protease inhibitors with pentacyclic triterpenoids as P2-ligands” (Bioorg Med Chem Lett, 2019)

How the values were obtained:
Protease = Protease (Human immunodeficiency virus 1, UniProt Q9YQ12); experiment: Inhibition of HIV1 protease expressed in Escherichia coli using Arg-Glu (EDANS)-Ser-Gln-Asn-Tyr-Pro-Ile-Val-Gln-Lys(DABCYL)-Arg as substrate preincubated for 20 to 30 mins followed by substrate addition and measured for 10 mins by FRET assay
[1] = molecular target: Protease (Human immunodeficiency virus 1) (UniProt Q9YQ12); experiment: Potency index, ratio of ursolic acid IC50 to test compound IC50 for HIV1 protease expressed in Escherichia coli
Sequence of Protease (Human immunodeficiency virus 1) (Q9YQ12 as listed by the source): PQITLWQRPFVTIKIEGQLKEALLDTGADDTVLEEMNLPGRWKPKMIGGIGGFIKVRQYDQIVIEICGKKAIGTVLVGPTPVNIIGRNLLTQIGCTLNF

Sequence of Protease (Q9YQ12 whole entry): as the sequence (Q9YQ12 as listed by the source) above

IC50 (Protease) [nM] | Ratio IC50 [1] | Compound
580 |  | CC(C)CN(C[C@@H](O)[C@H](Cc1ccccc1)NC(=O)[C@]1(C)CC[C@H]2C3=CC(=O)[C@@H]4[C@@]5(C)CC[C@H](O)C(C)(C)[C@@H]5CC[C@@]4(C)[C@]3(C)CC[C@@]2(C)C1)S(=O)(=O)c1ccc(N)cc1
500 |  | CC(C)CN(C[C@@H](O)[C@H](Cc1ccccc1)NC(=O)[C@]1(C)CC[C@H]2C3=CC(=O)[C@@H]4[C@@]5(C)CC[C@H](O)C(C)(C)[C@@H]5CC[C@@]4(C)[C@]3(C)CC[C@@]2(C)C1)S(=O)(=O)c1ccc([N+](=O)[O-])cc1
240 |  | COc1ccc(S(=O)(=O)N(CC(C)C)C[C@@H](O)[C@H](Cc2ccccc2)NC(=O)[C@]23CCC(C)(C)C[C@H]2C2=CC[C@@H]4[C@@]5(C)CC[C@H](O)C(C)(C)[C@@H]5CC[C@@]4(C)[C@]2(C)CC3)cc1
170 |  | CC(C)CN(C[C@@H](O)[C@H](Cc1ccccc1)NC(=O)[C@]12CC[C@@H](C)[C@H](C)[C@H]1C1=CC[C@@H]3[C@@]4(C)C[C@@H](O)[C@H](O)[C@@](C)(CO)[C@@H]4CC[C@@]3(C)[C@]1(C)CC2)S(=O)(=O)c1ccc([N+](=O)[O-])cc1
120 | 67 | CC(C)CN(C[C@@H](O)[C@H](Cc1ccccc1)NC(=O)[C@]12CC[C@@H](C)[C@H](C)[C@H]1C1=CC[C@@H]3[C@@]4(C)CC[C@H](O)C(C)(C)[C@@H]4CC[C@@]3(C)[C@]1(C)CC2)S(=O)(=O)c1ccc(N)cc1
210 |  | C=C(C)[C@@H]1CC[C@]2(C(=O)N[C@@H](Cc3ccccc3)[C@H](O)CN(CC(C)C)S(=O)(=O)c3ccc(OC)cc3)CC[C@]3(C)[C@H](CC[C@@H]4[C@@]5(C)CC[C@H](O)C(C)(C)[C@@H]5CC[C@]43C)[C@@H]12
400 |  | CC(C)CN(C[C@@H](O)[C@H](Cc1ccccc1)NC(=O)[C@]12CC[C@@H](C)[C@H](C)[C@H]1C1=CC[C@@H]3[C@@]4(C)CC[C@H](O)C(C)(C)[C@@H]4CC[C@@]3(C)[C@]1(C)CC2)S(=O)(=O)c1ccc([N+](=O)[O-])cc1
370 |  | COc1ccc(S(=O)(=O)N(CC(C)C)C[C@@H](O)[C@H](Cc2ccccc2)NC(=O)[C@]23CC[C@@H](C)[C@H](C)[C@H]2C2=CC[C@@H]4[C@@]5(C)CCC(=O)C(C)(C)[C@@H]5CC[C@@]4(C)[C@]2(C)CC3)cc1
1850 |  | COc1ccc(S(=O)(=O)N(CC(C)C)C[C@@H](O)[C@H](Cc2ccccc2)NC(=O)[C@]2(C)CC[C@@H]3C4=CC(=O)[C@@H]5[C@@]6(C)CC[C@H](O)C(C)(C)[C@@H]6CC[C@@]5(C)[C@]4(C)CC[C@@]3(C)C2)cc1
170 |  | CC(C)CN(C[C@@H](O)[C@H](Cc1ccccc1)NC(=O)[C@]12CCC(C)(C)C[C@H]1C1=CC[C@@H]3[C@@]4(C)CC[C@H](O)C(C)(C)[C@@H]4CC[C@@]3(C)[C@]1(C)CC2)S(=O)(=O)c1ccc(N)cc1
150 |  | CC(C)CN(C[C@@H](O)[C@H](Cc1ccccc1)NC(=O)[C@]12CCC(C)(C)C[C@H]1C1=CC[C@@H]3[C@@]4(C)CC[C@H](O)C(C)(C)[C@@H]4CC[C@@]3(C)[C@]1(C)CC2)S(=O)(=O)c1ccc([N+](=O)[O-])cc1
1050 |  | C=C(C)[C@@H]1CC[C@]2(C(=O)N[C@@H](Cc3ccccc3)[C@H](O)CN(CC(C)C)S(=O)(=O)c3ccc([N+](=O)[O-])cc3)CC[C@]3(C)[C@H](CC[C@@H]4[C@@]5(C)CC[C@H](O)C(C)(C)[C@@H]5CC[C@]43C)[C@@H]12
610 |  | C=C(C)[C@@H]1CC[C@]2(C(=O)N[C@@H](Cc3ccccc3)[C@H](O)CN(CC(C)C)S(=O)(=O)c3ccc(N)cc3)CC[C@]3(C)[C@H](CC[C@@H]4[C@@]5(C)CC[C@H](O)C(C)(C)[C@@H]5CC[C@]43C)[C@@H]12
1080 |  | CC(C)CN(C[C@@H](O)[C@H](Cc1ccccc1)NC(=O)[C@]1(C)CC[C@@H]2C3=CC(=O)[C@@H]4[C@@]5(C)CC[C@H](O)C(C)(C)[C@@H]5CC[C@@]4(C)[C@]3(C)CC[C@@]2(C)C1)S(=O)(=O)c1ccc([N+](=O)[O-])cc1
490 |  | CC(C)CN(C[C@@H](O)[C@H](Cc1ccccc1)NC(=O)[C@]1(C)CC[C@@H]2C3=CC(=O)[C@@H]4[C@@]5(C)CC[C@H](O)C(C)(C)[C@@H]5CC[C@@]4(C)[C@]3(C)CC[C@@]2(C)C1)S(=O)(=O)c1ccc(N)cc1
220 |  | CC(C)CN(C[C@@H](O)[C@H](Cc1ccccc1)NC(=O)[C@]12CC[C@@H](C)[C@H](C)[C@H]1C1=CC[C@@H]3[C@@]4(C)CCC(=O)C(C)(C)[C@@H]4CC[C@@]3(C)[C@]1(C)CC2)S(=O)(=O)c1ccc([N+](=O)[O-])cc1
480 |  | COc1ccc(S(=O)(=O)N(CC(C)C)C[C@@H](O)[C@H](Cc2ccccc2)NC(=O)[C@]2(C)CC[C@H]3C4=CC(=O)[C@@H]5[C@@]6(C)CC[C@H](O)C(C)(C)[C@@H]6CC[C@@]5(C)[C@]4(C)CC[C@@]3(C)C2)cc1
300 |  | CC(C)CN(C[C@@H](O)[C@H](Cc1ccccc1)NC(=O)[C@]12CC[C@@H](C)[C@H](C)[C@H]1C1=CC[C@@H]3[C@@]4(C)C[C@@H](O)[C@H](O)[C@@](C)(CO)[C@@H]4CC[C@@]3(C)[C@]1(C)CC2)S(=O)(=O)c1ccc(N)cc1
2370 |  | CC(C)CN(C[C@@H](O)[C@H](Cc1ccccc1)NC(=O)[C@]12CC[C@@H](C)[C@H](C)[C@H]1C1=CC[C@@H]3[C@@]4(C)CCC(=O)C(C)(C)[C@@H]4CC[C@@]3(C)[C@]1(C)CC2)S(=O)(=O)c1ccc(N)cc1
460 |  | COc1ccc(S(=O)(=O)N(CC(C)C)C[C@@H](O)[C@H](Cc2ccccc2)NC(=O)[C@]23CC[C@@H](C)[C@H](C)[C@H]2C2=CC[C@@H]4[C@@]5(C)CC[C@H](O)C(C)(C)[C@@H]5CC[C@@]4(C)[C@]2(C)CC3)cc1
150 |  | COc1ccc(S(=O)(=O)N(CC(C)C)C[C@@H](O)[C@H](Cc2ccccc2)NC(=O)[C@]23CC[C@@H](C)[C@H](C)[C@H]2C2=CC[C@@H]4[C@@]5(C)C[C@@H](O)[C@H](O)[C@@](C)(CO)[C@@H]5CC[C@@]4(C)[C@]2(C)CC3)cc1
